Patent EP1996603B1, “LIPID A ANTAGONISTS WITH ANTI-SEPTIC SHOCK, ANTI-INFLAMMATORY, ANTI-ISCHEMIA AND ANALGESIC ACTIVITY” (Università Degli Studi Di Milano - Bicocca, priority 2006, dated 2007)

What was measured:
[1] = target: T1, TLR9 (Homo sapiens, UniProt Q9NR96); test: NF-kB activation in HEK-293 cells transfected with TLR9, stimulated with CpG; assay type: cell-based; details: TLR9-transfected HEK 293; CpG (0.5 µM); maximal dose of 50 µM; measured 2 h later
T1 construct: host or cells: HEK-293 (HEK-293-hTLR9A)
T1 sequence (Q9NR96 26-1032): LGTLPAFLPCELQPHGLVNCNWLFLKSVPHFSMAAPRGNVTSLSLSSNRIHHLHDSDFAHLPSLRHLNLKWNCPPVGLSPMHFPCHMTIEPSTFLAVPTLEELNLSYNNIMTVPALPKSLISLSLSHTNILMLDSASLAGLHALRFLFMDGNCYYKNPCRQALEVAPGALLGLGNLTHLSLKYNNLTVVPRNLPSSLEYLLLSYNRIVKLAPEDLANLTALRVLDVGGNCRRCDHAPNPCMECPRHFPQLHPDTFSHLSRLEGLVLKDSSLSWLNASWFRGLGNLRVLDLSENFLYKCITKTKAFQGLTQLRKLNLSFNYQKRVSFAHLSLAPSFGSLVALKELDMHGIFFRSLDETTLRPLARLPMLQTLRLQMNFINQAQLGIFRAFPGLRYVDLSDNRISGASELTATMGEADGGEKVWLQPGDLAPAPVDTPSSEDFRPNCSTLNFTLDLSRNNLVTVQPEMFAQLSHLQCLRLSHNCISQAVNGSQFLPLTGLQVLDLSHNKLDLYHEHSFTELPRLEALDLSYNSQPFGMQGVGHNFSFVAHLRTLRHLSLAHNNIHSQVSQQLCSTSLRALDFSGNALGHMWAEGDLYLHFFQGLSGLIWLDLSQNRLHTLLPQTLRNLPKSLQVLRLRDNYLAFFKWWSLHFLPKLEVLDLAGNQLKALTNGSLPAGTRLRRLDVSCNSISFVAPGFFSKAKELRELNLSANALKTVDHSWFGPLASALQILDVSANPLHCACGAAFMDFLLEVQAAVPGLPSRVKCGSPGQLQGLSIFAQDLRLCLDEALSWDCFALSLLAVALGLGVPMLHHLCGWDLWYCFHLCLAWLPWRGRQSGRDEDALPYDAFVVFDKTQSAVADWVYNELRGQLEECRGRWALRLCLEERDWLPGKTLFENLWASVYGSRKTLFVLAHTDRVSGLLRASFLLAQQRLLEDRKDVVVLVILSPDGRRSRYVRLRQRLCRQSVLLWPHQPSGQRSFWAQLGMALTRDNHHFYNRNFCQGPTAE
Protocol: • Figure 1. Antagonistic activity of compounds Ia, Ic and Id on lipid A-stimulated cytokine production in BMDC, BMØ and D1 cells. TNFα production was measured in the supernatants 24 h later. From the right: lipid A (0.5µM), cells treated with lipid A alone; DMSO: cells incubated in the presence of complete medium plus DMSO; inhibitor 50 µM, cells treated only with monosaccharides Ia, Ic and Id; other columns, lipid A + compounds […] at increasing doses. The data represent means and standard deviations of triplicate wells. This is a representative of three independent experiments. *, p < 0.05; **, p < 0.01; ***, p< 0.001. • Figure 2. TLR-4 selectivity of monosaccharide Id. […] IL-1β was measured in the supernatants by ELISA. […] Lower panels, TNFα production measured by ELISA 24 h after stimulation with CpG (selective for TLR-9) or PAM3Cys-SK4 (selective for TLR-2) in the presence of compound Id. […] The cells were then analyzed by FACS for the presence of annexin V and propidium iodide (PI) double positive cells. […] NF-kB activation was evaluated in the nuclear extract 2 h later and expressed as optical density (OD) at 450 nm. […] Effect of different doses of compound Id on carrageenan induced edema in mice measured 4h after the exposure and expressed as difference between the paw volume of treated paw versus the contralateral paw. […]

[2] = Solubility in the aqueous media used in the tests; assay type: physicochemical; details: compared with Ia and Ic

Question: For `CCCCCCCCCCCCCCO[C@H]1[C@@H](OC)O[C@H](C[N+](C)(C)C2CCCC2)[C@@H](O)[C@@H]1OCCCCCCCCCCCCCC` [Compound Id, methyl 6-deoxy-6-N,N',N"-dimethylcyclopentylammonium-2,3-di-O-tetradecyl-α-D-glucopyranoside], which NF-kB activation [1] is on record?
Answer: The NF-kB activation was “inactive”.

Question: What about the “solubility in the aqueous media used in the tests” value [2] of the same molecule?
Answer: Its value is “highest solubility”.
